Reference: article PMC3516633 (European journal of medicinal chemistry, 2012)
Where two headings read alike, the source gives them in different places.

Tests used:
TbAUK1 [1] = biological target: T1, TbAUK1 (Trypanosoma brucei brucei, UniProt Q384J7); assay: in vitro kinase assay with immunoprecipitated AU1-tagged TbAUK1; format: biochemical; conditions: tested at 500 nM; AU1-tagged TbAUK1 pull-down, MBP substrate
[2] = test system: 15 different cancer cell lines; conditions: read-out: mean EC50 averaged from 15 different cancer cell lines; cited from earlier work
[3] = test system: T. brucei rhodesiense YTAT1.1 strain; assay: dose-response against T. b. rhodesiense cultures, Cell Titer Blue assay; format: cell-based, Trypanosoma brucei rhodesiense; conditions: ratio MOLT-4 EC50 / T. b. rhodesiense EC50
TbAUK1 [4] = biological target: T1, TbAUK1; conditions: at 200 nM; cited from earlier work

CO[C@@H](C(=O)N1Cc2[nH]nc(NC(=O)c3ccc(N4CCN(C)CC4)cc3)c2C1)c1ccccc1 [Compound 1, danusertib]
inhibition of TbAUK1 kinase activity (TbAUK1 [1]): inhibited TbAUK1 to the same background level as hesperadin
EC50 [2]: 123 nM

CCc1cccc(CC)c1NC(=O)N1Cc2[nH]nc(NC(=O)c3ccc(N4CCN(C)CC4)cc3)c2C1 [Compound 2, PHA-680632]
inhibition of TbAUK1 kinase activity (TbAUK1 [1]): inhibited TbAUK1 to the same background level as hesperadin

CN1CCN(c2ccc(C(=O)Nc3n[nH]c4c3CN(C(=O)Cc3cccc5ccccc35)C4)cc2)CC1 [Compound 8, 4-(4-Methylpiperazin-1-yl)-N-(5-(2-(naphthalen-1-yl)acetyl)-1,4,5,6-tetrahydropyrrolo[3,4-c]pyrazol-3-yl)benzamide]
Selectivity MOLT/Tbr [3]: 23.4

CN1CCN(c2ccc(C(=O)Nc3n[nH]c4c3CN(C(=O)Cc3c(F)ccc(F)c3F)C4)cc2)CC1 [Compound 9, 4-(4-Methylpiperazin-1-yl)-N-(5-(2-(2,3,6-trifluorophenyl)acetyl)-1,4,5,6-tetrahydropyrrolo[3,4-c]pyrazol-3-yl)benzamide]
Selectivity MOLT/Tbr [3]: 6.9

CN1CCN(c2ccc(C(=O)Nc3n[nH]c4c3CN(C(=O)Cc3cccc(Cl)c3)C4)cc2)CC1 [Compound 11, N-(5-(2-(3-Chlorophenyl)acetyl)-1,4,5,6-tetrahydropyrrolo[3,4-c]pyrazol-3-yl)-4-(4-methylpiperazin-1-yl)benzamide]
Selectivity MOLT/Tbr [3]: 6.9

Cc1ccc(C(C)C(=O)N2Cc3[nH]nc(NC(=O)c4ccc(N5CCN(C)CC5)cc4)c3C2)cc1 (centres unmarked) [Compound 13, 4-(4-Methylpiperazin-1-yl)-N-(5-(2-(p-tolyl)propanoyl)-1,4,5,6-tetrahydropyrrolo[3,4-c]pyrazol-3-yl)benzamide]
Selectivity MOLT/Tbr [3]: 6.4

Cc1cc(C)cc(CC(=O)N2Cc3[nH]nc(NC(=O)c4ccc(N5CCN(C)CC5)cc4)c3C2)c1 [Compound 14, N-(5-(2-(3,5-Dimethylphenyl)acetyl)-1,4,5,6-tetrahydropyrrolo[3,4-c]pyrazol-3-yl)-4-(4-methylpiperazin-1-yl)benzamide]
Selectivity MOLT/Tbr [3]: 4.3

Cc1ccc(C)c(CC(=O)N2Cc3[nH]nc(NC(=O)c4ccc(N5CCN(C)CC5)cc4)c3C2)c1 [Compound 15, N-(5-(2-(2,5-Dimethylphenyl)acetyl)-1,4,5,6-tetrahydropyrrolo[3,4-c]pyrazol-3-yl)-4-(4-methylpiperazin-1-yl)benzamide]
Selectivity MOLT/Tbr [3]: 2.2

CN1CCN(c2ccc(C(=O)Nc3n[nH]c4c3CN(C(=O)Cc3cc(F)cc(F)c3F)C4)cc2)CC1 [Compound 16, 4-(4-Methylpiperazin-1-yl)-N-(5-(2-(2,3,5-trifluorophenyl)acetyl)-1,4,5,6-tetrahydropyrrolo[3,4-c]pyrazol-3-yl)benzamide]
Selectivity MOLT/Tbr [3]: 1.2

Cc1[nH]c2ccccc2c1CC(=O)N1Cc2[nH]nc(NC(=O)c3ccc(N4CCN(C)CC4)cc3)c2C1 [Compound 17, N-(5-(2-(2-Methyl-1H-indol-3-yl)acetyl)-1,4,5,6-tetrahydropyrrolo[3,4-c]pyrazol-3-yl)-4-(4-methylpiperazin-1-yl)benzamide]
Selectivity MOLT/Tbr [3]: 1.0

CN1CCN(c2ccc(C(=O)Nc3n[nH]c4c3CN(C(=O)Cc3cc(F)cc(F)c3)C4)cc2)CC1 [Compound 18, N-(5-(2-(3,5-Difluorophenyl)acetyl)-1,4,5,6-tetrahydropyrrolo[3,4-c]pyrazol-3-yl)-4-(4-methylpiperazin-1-yl)benzamide]
Selectivity MOLT/Tbr [3]: 0.7

CCS(=O)(=O)Nc1ccc2c(c1)/C(=C(/Nc1ccc(CN3CCCCC3)cc1)c1ccccc1)C(=O)N2 [Hesperadin, hesperadin]
inhibition of TbAUK1 kinase activity (TbAUK1 [4]): to the level of a background kinase
inhibition of TbAUK1 kinase activity (TbAUK1 [1]): completely inhibited TbAUK1
